Measurements published in US20170158745A1, “IDR PEPTIDE COMPOSITIONS AND USE THEREOF FOR TREATMENT OF TH2-DYSREGULATED INFLAMMATORY CONDITIONS” (University of Manitoba, priority 2013, published 2017).
Residues, ends and D or L forms follow the SMILES beside them.

Columns and labels:
Assay type in all cases: in vivo, mouse (Balb/c)
Settings in all cases: BALF, serum or lung tissue extract
[1] = test system: IL-4; assay: Induction of IL-4 by the peptide itself
[2] = test system: IL-5; assay: Induction of IL-5 by the peptide itself
[3] = test system: TNFα; assay: Induction of TNFα by the peptide itself
[4] = test system: IL-1β; assay: Induction of IL-1β by the peptide itself

CC[C@H](C)[C@H](NC(=O)[C@H](CCCNC(=N)N)NC(=O)[C@H](Cc1c[nH]c2ccccc12)NC(=O)[C@@H](NC(=O)[C@@H](NC(=O)[C@H](CC(C)C)NC(=O)[C@H](Cc1c[nH]c2ccccc12)NC(=O)[C@H](CCCNC(=N)N)NC(=O)[C@H](CCC(N)=O)NC(=O)[C@@H](N)C(C)C)[C@@H](C)CC)C(C)C)C(=O)N[C@@H](CCCNC(=N)N)C(=O)N[C@@H](CCCCN)C(N)=O [IDR 1002, VQRWLIVWRIRK-NH2] (H-VQRWLIVWRIRK-NH2)
did not induce: induction of IL-4 [1] | induction of IL-5 [2] | induction of TNFα [3] | induction of IL-1β [4]
